Our source for the IOP lowering values is ChEMBL document CHEMBL1136164, “Carbonic anhydrase inhibitors: X-ray crystallographic structure of the adduct of human isozyme II with a bis-sulfonamide-two heads are better than one?” (Bioorg Med Chem Lett, 2003).

The species named for test [1] is Oryctolagus cuniculus. Put plainly: Prolonged IOP lowering by the compound in glaucomatous rabbit for 5 to 6 hours. In kind it is functional.
The species named for test [2] is Oryctolagus cuniculus. Put plainly: Prolonged IOP lowering by the compound in glaucomatous rabbit for 3 hours. Format: functional.

For `NS(=O)(=O)c1ccc(CCNC(=O)c2ccc(S(N)(=O)=O)cc2)cc1`, the IOP lowering in the test listed under Oryctolagus cuniculus [1] was 9.5 mmHg. `CCN[C@H]1C[C@H](C)S(=O)(=O)c2sc(S(N)(=O)=O)cc21` [DORZOLAMIDE]: the IOP lowering in the test filed under Oryctolagus cuniculus [2] is reported as 3.6 mmHg.
